Assay results: ChEMBL document CHEMBL1133082, “Adenosine kinase inhibitors. 2. Synthesis, enzyme inhibition, and antiseizure activity of diaryltubercidin analogues” (J Med Chem, 2000)

How the values were obtained:
Adenosine kinase = Adenosine kinase (Homo sapiens, UniProt P55263); assay: Inhibition of recombinant human adenosine kinase
Rattus norvegicus [1] = assay: Intraperitoneal effective dose required for inhibition of MES-induced seizures in rat; format: functional; details: ip
Rattus norvegicus [2] = assay: Tested for inhibition of MES-induced seizures in rat after ip administration of 5 mg/kg; format: functional; details: route intraperitoneal

Sequence of Adenosine kinase (P55263 whole entry): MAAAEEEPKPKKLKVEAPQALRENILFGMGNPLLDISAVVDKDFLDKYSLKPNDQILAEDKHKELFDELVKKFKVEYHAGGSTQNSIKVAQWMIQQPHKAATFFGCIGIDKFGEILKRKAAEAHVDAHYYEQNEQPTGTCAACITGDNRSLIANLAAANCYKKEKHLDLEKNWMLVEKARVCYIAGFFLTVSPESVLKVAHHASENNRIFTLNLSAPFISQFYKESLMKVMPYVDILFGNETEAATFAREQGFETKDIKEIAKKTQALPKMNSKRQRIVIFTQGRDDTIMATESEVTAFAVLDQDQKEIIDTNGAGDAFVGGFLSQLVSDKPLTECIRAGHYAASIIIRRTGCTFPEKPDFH

SMILES	IC50 (Adenosine kinase) [nM]	ED50 (Rattus norvegicus [1]) [mg/kg]	inhibition in vivo at 5 mg/kg (Rattus norvegicus [2]) [%]
COc1ccc(Nc2ncnc3c2c(-c2ccccc2)cn3[C@@H]2O[C@H](C)[C@@H](O)[C@H]2O)cc1	6	1	93
OC[C@H]1O[C@@H](n2cc(-c3ccccc3)c3c(Nc4ccccc4)ncnc32)C[C@@H]1O	300	–	–
C[C@H]1O[C@@H](n2cc(-c3ccccc3)c3c(Nc4ccc(F)cc4)ncnc32)[C@H](O)[C@@H]1O	–	–	73
C[C@H]1O[C@@H](n2cc(-c3ccccc3)c3c(Nc4ccc(O)cc4)ncnc32)[C@H](O)[C@@H]1O	1	5.8	35

The next lines start with results.

IC50 (Adenosine kinase) [nM]	SMILES	ED50 (Rattus norvegicus [1]) [mg/kg]	inhibition in vivo at 5 mg/kg (Rattus norvegicus [2]) [%]
14	C[C@H]1O[C@@H](n2cc(-c3ccccc3)c3c(Nc4ccc(C#N)cc4)ncnc32)[C@H](O)[C@@H]1O	–	87
800	C[C@H]1O[C@@H](n2cc(I)c3c(NCc4ccccc4)ncnc32)[C@H](O)[C@@H]1O	–	–
1250	OC[C@H]1O[C@@H](n2ccc3c(Nc4ccccc4)ncnc32)[C@H](O)[C@@H]1O	–	–
30	C[C@H]1O[C@@H](n2cc(-c3ccccc3)c3c(NCc4ccccc4)ncnc32)[C@H](O)[C@@H]1O	–	–
